Reference: patent US20220274961A1, “SUBSTITUTED FUSED BI- OR TRI- HETEROCYCLIC COMPOUNDS AS EHMT2 INHIBITORS” (priority 2016, published 2022)

The molecules below were run against T1, EHMT2 (Homo sapiens, UniProt Q96KQ7) (assay: MDA-MB-231 H3K9me2 in-cell Western assay (EHMT2 ICW)). Details: MDA-MB-231 cells, H3K9me2 in-cell Western; read-out: EHMT2 ICW (IC50 μM).
T1 construct: endogenous in cells; host or cells: MDA-MB-231 (ATCC)
T1 sequence (Q96KQ7 1-1210): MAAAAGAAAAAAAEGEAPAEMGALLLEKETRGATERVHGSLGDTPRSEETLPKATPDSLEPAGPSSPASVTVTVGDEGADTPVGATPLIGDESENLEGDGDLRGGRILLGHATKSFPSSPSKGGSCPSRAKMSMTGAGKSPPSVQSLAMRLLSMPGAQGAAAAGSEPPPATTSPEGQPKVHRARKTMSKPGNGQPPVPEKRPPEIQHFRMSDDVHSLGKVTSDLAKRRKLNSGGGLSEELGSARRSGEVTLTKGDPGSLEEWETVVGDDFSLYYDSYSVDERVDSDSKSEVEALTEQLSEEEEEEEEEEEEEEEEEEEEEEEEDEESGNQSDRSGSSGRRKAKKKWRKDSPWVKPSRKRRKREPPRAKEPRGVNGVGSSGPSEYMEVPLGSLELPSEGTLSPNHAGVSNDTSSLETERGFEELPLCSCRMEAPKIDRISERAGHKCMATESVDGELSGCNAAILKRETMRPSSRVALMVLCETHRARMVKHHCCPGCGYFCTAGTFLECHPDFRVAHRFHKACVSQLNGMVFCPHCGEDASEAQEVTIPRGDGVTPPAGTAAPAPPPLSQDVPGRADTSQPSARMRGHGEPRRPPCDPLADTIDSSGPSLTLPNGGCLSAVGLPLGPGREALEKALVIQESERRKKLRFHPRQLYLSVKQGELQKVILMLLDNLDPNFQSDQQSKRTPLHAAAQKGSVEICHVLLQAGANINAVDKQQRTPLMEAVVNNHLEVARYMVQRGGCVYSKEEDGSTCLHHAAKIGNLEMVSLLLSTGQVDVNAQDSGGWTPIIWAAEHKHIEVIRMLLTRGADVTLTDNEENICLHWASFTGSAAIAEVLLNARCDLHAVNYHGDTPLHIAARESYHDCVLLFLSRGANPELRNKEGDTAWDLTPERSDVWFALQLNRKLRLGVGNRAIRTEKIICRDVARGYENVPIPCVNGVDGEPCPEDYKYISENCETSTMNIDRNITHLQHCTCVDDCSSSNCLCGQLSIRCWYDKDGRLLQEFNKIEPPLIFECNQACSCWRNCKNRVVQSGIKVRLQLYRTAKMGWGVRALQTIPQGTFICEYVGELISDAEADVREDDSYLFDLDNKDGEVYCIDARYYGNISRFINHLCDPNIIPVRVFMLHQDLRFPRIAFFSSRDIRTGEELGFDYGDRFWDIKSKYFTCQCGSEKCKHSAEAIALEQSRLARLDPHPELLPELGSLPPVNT
Assay type: cell-based
Description: MDA-MB-231 cell line was purchased from ATCC (Manassas, Va., USA). RPMI/Glutamax medium, Penicillin-Streptomycin, Heat Inactivated Fetal Bovine Serum, and D-PBS were purchased from Life Technologies (Grand Island, N.Y., USA). Odyssey blocking buffer, 800CW goat anti-mouse IgG (H+L) antibody, and Licor Odyssey Infrared Scanner were purchased from Licor Biosciences, Lincoln, Nebr., USA. H3K9me2 mouse monoclonal antibody (Cat #1220) was purchased from Abcam (Cambridge, Mass., USA). 16% Paraformaldehyde was purchased from Electron Microscopy Sciences, Hatfield, Pa., USA). MDA-MB-231 cells were maintained in complete growth medium (RPMI supplemented with 10% v/v heat inactivated fetal bovine serum) and cultured at 37° C. under 5% CO2. UNC0638 was purchased from Sigma-Aldrich (St. Louis, Mo., USA).
General Procedure for MDA-MB-231 HEK9me2 in-cell Western Assay. Compound (100 nL) was added directly to 384-well cell plate. MDA-MB-231 cells (ATCC) were seeded in assay medium (RPMI/Glutamax supplemented with 10% v/v heat inactivated fetal bovine serum and 1% Penicillin/Streptomycin, Life Technologies) at a concentration of 3,000 cells per well to a Poly-D-Lysine coated 384-well cell culture plate with 50 μL per well. Plates were incubated at 37° C., 5% CO2 for 48 hours (BD Biosciences 356697). Plates were incubated at room temperature for 30 minutes and then incubated at 37° C., 5% CO2 for additional 48 hours. After the incubation, 50 μL per well of 8% paraformaldehyde (Electron Microscopy Sciences) in PBS was added to the plates and incubated at room temperature for 20 minutes. Plates were transferred to a Biotek 406 plate washer and washed 2 times with 100 μL per well of wash buffer (1×PBS containing 0.3% Triton X-100 (v/v)). Next, 60 μL per well of Odyssey blocking buffer (Licor Biosciences) was added to each plate and incubated for 1 hour at room temperature. Blocking buffer was removed and 20 μL of monoclonal primary antibody α-H3K9me2 (Abcam) diluted 1:800 in Odyssey buffer with 0.1% Tween 20 (v/v) were added and plates were incubated overnight (16 hours) at 4° C. Plates were washed 5 times with 100 μL per well of wash buffer. Next 20 μL per well of secondary antibody was added (1:500 800CW donkey anti-mouse IgG (H+L) antibody (Licor Biosciences), 1:1000 DRAQ5 (Cell Signaling Technology) in Odyssey buffer with 0.1% Tween 20 (v/v)) and incubated for 1 hour at room temperature. The plates were washed 5 times with […] wash buffer then 2 times with 100 μL per well of water. Plates were allowed to dry at room temperature then imaged on a Licor Odyssey Infrared Scanner (Licor Biosciences) which measured integrated intensity at 700 nm and 800 nm wavelengths. Both 700 and 800 channels were scanned.
% Inhibition Calculation. First, the ratio for each well was determined by:
Each plate included fourteen control wells of DMSO only treatment (Minimum Inhibition) as well as fourteen control wells (background wells) for maximum inhibition treated with control compound UNC0638 (Background wells).
The average of the ratio values for each well was calculated and used to determine the percent inhibition for each test well in the plate. Control compound was serially diluted three-fold in DMSO for a total of 10 test concentrations beginning at 1 μM. Percent inhibition was calculated as: […]
IC50 curves were generated using triplicate wells per concentration of compound. The IC50 is the concentration of compound at which measured methylation is inhibited by 50% as interpolated from the dose response curves. IC50 values were calculated using a non-linear regression (variable slope-four parameter fit model) with by the following formula:
where Top is fixed at 100% and Bottom is fixed to 0%, [I]=concentration of inhibitor, IC50=half maximal inhibitory concentration, and n=Hill Slope.
CNC1=Nc2cc(CNCCN3CCCC3)c(OC)cc2C12CCC2 [Compound 70] gave an IC50 of 0.1 to 1 µM.
In the case of CCNC1=Nc2cc(CNCCN3CCCC3)c(OC)cc2C12CCC2 [Compound 71], the IC50 is reported as 1 to 10 µM.
CCNC1=Nc2cc(CNCCN3CCC3)c(OC)cc2C12CCC2 [Compound 72] showed an IC50 of 1 to 10 µM.
Work on CCCNC1=Nc2cc(CNCCN3CCCC3)c(OC)cc2C12CCC2 [Compound 73] yielded an IC50 of 0.1 to 1 µM.
With CNC1=Nc2cc(C#CCN3CCCC3)c(OC)cc2C12CCC2 [Compound 74] the IC50 was < 0.1 µM.
In the case of CNC1=Nc2cc(C#CCN3CCCCC3)c(OC)cc2C12CCC2 [Compound 75, 5′-methoxy-N-methyl-6′-(3-(piperidin-1-yl)prop-1-yn-1-yl)spiro[cyclobutane-1,3′-indol]-2′-amine], the IC50 is reported as < 0.1 µM.
With COc1cc2c(cc1CNCCN1CCCC1)N=C(NC1CCOCC1)C21CCC1 [Compound 76] the IC50 was 1 to 10 µM.
CNC1=Nc2cc(C#CC(C)N3CCCC3)c(OC)cc2C12CCC2 (stereo not drawn) [Compound 84] showed an IC50 of 0.1 to 1 µM.
With CNC1=Nc2cc(C#C[C@H](C)N3CCCC3)c(OC)cc2C12CCC2 [Compound 85] the IC50 was < 0.1 µM.
With CNC1=Nc2cc(C#C[C@@H](C)N3CCCC3)c(OC)cc2C12CCC2 [Compound 86] the IC50 was 0.1 to 1 µM.
CNC1=Nc2cc(C#CC(C)N3CCCCC3)c(OC)cc2C12CCC2 (stereo not drawn) [Compound 92] gave an IC50 of 0.1 to 1 µM.
COCCNC1=Nc2cc(C#CCN3CCCCC3)c(OC)cc2C12CCC2 [Compound 99] was tested, and the IC50 was 0.1 to 1 µM.
CNC1=Nc2cc(C#CCN3CCC(F)C3)c(OC)cc2C12CCC2 (stereo not drawn) [Compound 100] was tested, and the IC50 was 1 to 10 µM.
With CNc1nc2cc(CNCCN3CCCC3)c(Cl)cc2n1C(C)C [Compound 138] the IC50 was 1 to 10 µM.
In the case of CNc1nc2cc(CNCCN3CCCC3)c(C)cc2n1C(C)C [Compound 139], the IC50 is reported as 1 to 10 µM.
